Data reported in US10975068B2, “6-aminopyridin-3-yl thiazoles as modulators of RORγT” (Janssen Pharmaceutica NV, priority 2016, dated 2021).
Where two headings read alike, the source gives them in different places. Marks after values point to notes of the source that are not given here.

Columns and labels:
[1] = biological target: human RORγt ligand binding domain (RORγt LBD) (Homo sapiens (Human), UniProt P51449); test: RORγt ThermoFluor® assay (thermal shift binding)
How it was run: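 Binding was inferred from thermal stabilisation (ΔTm) of the E. coli-expressed RORγt LBD (0.065 mg/mL), monitored by 1,8-ANS (60 μM) emission at 500 nm during a 1 °C/min ramp. Buffer was Hepes 100 mM pH 7.0 with NaCl, GSH and Tween-20.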

full-length human RORγt = full-length human RORγt (Homo sapiens (Human), UniProt P51449); test: RORγt (full-length human) reporter assay, Conditions B or C; type: cell-based; conditions: for RORγt (FL) Reporter Assay B or C, % inhibition (value marked *): marked *: footnote not given; for inhibition at 3 µM: read-out: RORγt (FL) Reporter Assay B or C, % inhibition
How it was run: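 Readout is dual luciferase: firefly (GAL4-driven) normalized to DMSO-only and saturating-reference controls, then to CMV-Renilla. Full-length human RORγt fused to GAL4-DBD was transiently expressed in HEK293T; compound exposure ran overnight (16-20 h) starting 4-6 h after transfection, final FBS 1.3%, DMSO 0.1%.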

[2] = read-out: ThermoFluor® Assay, Kd
[3] = Conditions B or C, read-out: RORγt (FL) Reporter Assay B or C, IC50
[4] = read-out: RORγt (FL) Reporter Assay B or C, IC50

Chain of full-length human RORγt (P51449 other isoform, or with tags, fused parts or gaps): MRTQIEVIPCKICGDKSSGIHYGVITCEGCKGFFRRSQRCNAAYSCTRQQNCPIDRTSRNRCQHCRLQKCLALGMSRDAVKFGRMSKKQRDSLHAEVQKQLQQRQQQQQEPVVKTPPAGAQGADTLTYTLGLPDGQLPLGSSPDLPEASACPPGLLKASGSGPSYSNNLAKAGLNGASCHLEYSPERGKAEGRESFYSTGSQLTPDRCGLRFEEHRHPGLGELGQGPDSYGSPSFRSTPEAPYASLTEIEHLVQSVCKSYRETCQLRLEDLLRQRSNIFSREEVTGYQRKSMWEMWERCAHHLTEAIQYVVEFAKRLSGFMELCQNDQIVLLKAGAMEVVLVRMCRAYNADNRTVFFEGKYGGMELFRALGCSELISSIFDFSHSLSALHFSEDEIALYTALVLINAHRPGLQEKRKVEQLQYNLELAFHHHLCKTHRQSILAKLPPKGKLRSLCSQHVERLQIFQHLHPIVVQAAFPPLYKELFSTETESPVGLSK
Chain of human RORγt ligand binding domain (RORγt LBD) (P51449 other isoform, or with tags, fused parts or gaps): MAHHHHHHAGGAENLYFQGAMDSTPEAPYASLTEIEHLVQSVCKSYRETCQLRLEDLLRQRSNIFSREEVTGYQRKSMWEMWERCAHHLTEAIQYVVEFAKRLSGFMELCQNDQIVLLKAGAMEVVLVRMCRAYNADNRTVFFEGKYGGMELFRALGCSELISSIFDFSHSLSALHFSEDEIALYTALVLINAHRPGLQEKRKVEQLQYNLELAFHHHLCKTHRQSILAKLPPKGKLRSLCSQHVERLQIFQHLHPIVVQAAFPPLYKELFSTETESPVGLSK

| Kd [1, 2] [µM] | RORγt (FL) Reporter Assay B or C, % inhibition (value marked *) (full-length human RORγt; Conditions B or C) | IC50 (full-length human RORγt; [3]) [µM] | IC50 (full-length human RORγt; [4]) [µM] | inhibition at 3 µM (full-length human RORγt; at 3 μM compound concentration) [%] | SMILES | other results |
| --- | --- | --- | --- | --- | --- | --- |
| 0.00026 | 110* % | 0.0039 | – | – | CCC(C)(C)Nc1cc(C(F)(F)F)c(-c2sc(C(=O)NCC(C)(C)O)nc2C(=O)N2CC(F)(F)C[C@@H]2C)cn1 [Example 103, (S)-4-(4,4-Difluoro-2-methylpyrrolidine-1-carbonyl)-N-(2-hydroxy-2-methylpropyl)-5-(6-(tert-pentylamino)-4-(trifluoromethyl)pyridin-3-yl)thiazole-2-carboxamide] | – |
| 0.00079 | 117* % | 0.022 | – | – | C[C@H]1CC(F)(F)CN1C(=O)c1nc(C(=O)NCC(C)(C)O)sc1-c1cnc(NC(C)(C)C2CC2)cc1C(F)F [Example 106, (S)-5-(6-((2-Cyclopropylpropan-2-yl)amino)-4-(difluoromethyl)pyridin-3-yl)-4-(4,4-difluoro-2-methylpyrrolidine-1-carbonyl)-N-(2-hydroxy-2-methylpropyl)thiazole-2-carboxamide] | – |
| 0.12 | – | 0.22 | – | – | C[C@H]1CCN1C(=O)c1nc(C(=O)NCC(C)(C)O)sc1-c1cnc(NC2CCCCC2)cc1C(F)(F)F [Example 25, (S)-5-(6-(Cyclohexylamino)-4-(trifluoromethyl)pyridin-3-yl)-N-(2-hydroxy-2-methylpropyl)-4-(2-methylazetidine-1-carbonyl)thiazole-2-carboxamide] | inhibition at 6 µM (full-length human RORγt; read-out: RORγt (FL) Reporter Assay B or C, % inhibition @ 6 μM, Conditions B or C, @ 6 μM): 102% |
| 0.002 | – | – | 0.014 | 99 | C[C@H]1CC(F)(F)CN1C(=O)c1nc(C(=O)NCC(C)(C)O)sc1-c1cnc(NCC2(C(F)(F)F)CC2)cc1C(F)F [Example 275, 4-[(2S)-4,4-Difluoro-2-methyl-pyrrolidine-1-carbonyl]-5-[4-(difluoromethyl)-6-[[1-(trifluoromethyl)cyclopropyl]methylamino]-3-pyridyl]-N-(2-hydroxy-2-methyl-propyl)thiazole-2-carboxamide] | – |
| 0.002 | 116* % | 0.015 | – | – | C[C@H]1CCCN1C(=O)c1nc(C(=O)NCC(C)(C)O)sc1-c1cnc(NC(C)(C)C2CC2)cc1C(F)F [Example 105, (S)-5-(6-((2-Cyclopropylpropan-2-yl)amino)-4-(difluoromethyl)pyridin-3-yl)-N-(2-hydroxy-2-methylpropyl)-4-(2-methylpyrrolidine-1-carbonyl)thiazole-2-carboxamide] | – |
| 0.0052 | – | – | 0.1 | 87 | C[C@H]1CCCN1C(=O)c1nc(C(=O)N[C@H](C)C(C)(C)O)sc1-c1cnc(NC2(C)CCC2)cc1C(F)F [Example 321, 5-(4-(Difluoromethyl)-6-((1-methylcyclobutyl)amino)pyridin-3-yl)-N—((R)-3-hydroxy-3-methylbutan-2-yl)-4-((S)-2-methylpyrrolidine-1-carbonyl)thiazole-2-carboxamide] | – |
| 0.00019 | 138* % | 0.01 | – | – | C[C@H]1CCCCN1C(=O)c1nc(C(=O)NCC(C)(C)O)sc1-c1cnc(NC(C)(C)C2CC2)cc1C(F)F [Example 88, (S)-5-(6-((2-Cyclopropylpropan-2-yl)amino)-4-(difluoromethyl)pyridin-3-yl)-N-(2-hydroxy-2-methylpropyl)-4-(2-methylpiperidine-1-carbonyl)thiazole-2-carboxamide] | – |
| 0.015 | – | – | 0.12 | 100 | CC[C@@H](CO)NC(=O)c1nc(C(=O)N2CCC[C@@H]2C)c(-c2cnc(N[C@@H](C)C(F)(F)F)cc2C(F)F)s1 [Example 407, 5-[4-(Difluoromethyl)-6-[[(1S)-2,2,2-trifluoro-1-methyl-ethyl]amino]-3-pyridyl]-N-[(1S)-1-(hydroxymethyl)propyl]-4-[(2S)-2-methylpyrrolidine-1-carbonyl]thiazole-2-carboxamide] | – |
| 0.0024 | 99* % | 0.015 | – | – | CC[C@@H](Nc1cc(C(F)F)c(-c2sc(C(=O)N[C@@H](C)C(C)(C)O)nc2C(=O)N2CCC[C@@H]2C)cn1)C(F)(F)F [Example 230] | – |

The remaining lines, values behind:

| SMILES | Kd [1, 2] [µM] | RORγt (FL) Reporter Assay B or C, % inhibition (value marked *) (full-length human RORγt; Conditions B or C) | IC50 (full-length human RORγt; [3]) [µM] | IC50 (full-length human RORγt; [4]) [µM] | inhibition at 3 µM (full-length human RORγt; at 3 μM compound concentration) [%] | other results |
| --- | --- | --- | --- | --- | --- | --- |
| CC[C@H](Nc1cc(C(F)F)c(-c2sc(C(=O)NC3CCC3O)nc2C(=O)N2CCC[C@@H]2C)cn1)C(F)(F)F (stereo partly drawn) [Example 379, 5-(4-(Difluoromethyl)-6-(((S)-1,1,1-trifluorobutan-2-yl)amino)pyridin-3-yl)-N-(cis-2-hydroxycyclobutyl)-4-((S)-2-methylpyrrolidine-1-carbonyl)thiazole-2-carboxamide] | 0.0024 | – | – | 0.055 | – | RORγt (FL) Reporter Assay B or C, % inhibition (full-length human RORγt; at 3 μM compound concentration): 101* % |
| C[C@H](Nc1cc(C(F)(F)F)c(-c2sc(C(=O)N[C@@H]3COC[C@@H]3O)nc2C(=O)N2C3CCC2CC3)cn1)C(F)(F)F (single isomer, unassigned) [Example 228, 4-((1s,4s)-7-Azabicyclo[2.2.1]heptane-7-carbonyl)-N-((3R*,4R*)-4-hydroxytetrahydrofuran-3-yl)-5-(4-(trifluoromethyl)-6-(((S)-1,1,1-trifluoropropan-2-yl)amino)pyridin-3-yl)thiazole-2-carboxamide] | – | – | – | – | – | Kd ([1]; ThermoFluor® Assay, Kd (μM)): 0.0023 µM; RORγt (FL) Reporter Assay B or C, % inhibition (value marked ***) (full-length human RORγt; Conditions B or C, marked ***: footnote not given): 91*** %; IC50 (full-length human RORγt; RORγt (FL) Reporter Assay B or C, IC50 (μM), Conditions B or C): 0.095 µM |
| C[C@@H](NC(=O)c1nc(C(=O)N2C3CCC2CC3)c(-c2cnc(N[C@@H](C3CC3)C(F)(F)F)cc2C(F)F)s1)C(C)(C)O [Example 316, 4-((1s,4s)-7-Azabicyclo[2.2.1]heptane-7-carbonyl)-5-(6-(((S)-1-cyclopropyl-2,2,2-trifluoroethyl)amino)-4-(difluoromethyl)pyridin-3-yl)-N—((R)-3-hydroxy-3-methylbutan-2-yl)thiazole-2-carboxamide] | 0.0029 | – | – | – | 108 | IC50 (full-length human RORγt; RORγt (FL) Reporter Assay B or C, IC50): 0.032 µM |
| C[C@H]1CCCN1C(=O)c1nc(C(=O)NC[C@H](O)C(F)(F)F)sc1-c1cnc(NC(C)(C)C)cc1C(F)(F)F (relative stereo) [Example 353, 5-(6-(tert-Butylamino)-4-(trifluoromethyl)pyridin-3-yl)-4-((S)-2-methylpyrrolidine-1-carbonyl)-N—((S*)-3,3,3-trifluoro-2-hydroxypropyl)thiazole-2-carboxamide] | 0.0016 | – | – | 0.02 | 95 | – |
| CC[C@@H](Nc1cc(C(F)F)c(-c2sc(C(=O)NCC(C)(C)O)nc2C(=O)N2C3CCC2CC3)cn1)C1CC1 (stereo in doubt) [Example 164] | 0.0046 | 105* % | 0.023 | – | – | – |
| C[C@H](Nc1cc(C(F)F)c(-c2sc(C(=O)NC3CN(S(C)(=O)=O)C3)nc2C(=O)N2CCC[C@@H]2C)cn1)C(F)(F)F [Example 409, 5-[4-(Difluoromethyl)-6-[[(1S)-2,2,2-trifluoro-1-methyl-ethyl]amino]-3-pyridyl]-4-[(2S)-2-methylpyrrolidine-1-carbonyl]-N-(1-methylsulfonylazetidin-3-yl)thiazole-2-carboxamide] | 0.0063 | – | – | 0.036 | 103 | – |
| C[C@H](NC(=O)c1nc(C(=O)N2C3CCC2CC3)c(-c2cnc(NC3(C)CCC3)cc2C(F)F)s1)C(C)(C)O [Example 189] | 0.0036 | 101* % | 0.098 | – | – | – |
